Assay results taken from patent US20130315843A1, “COMPOSITION FOR REDUCTION OF TRPA1 AND TRPV1 SENSATIONS” (priority 2012, published 2013).
Read-outs that look alike come from different tables or passages of the source.

What was measured:
[1] = molecular target: human TRPV1 (Homo sapiens, UniProt Q8NER1); test: FLIPR Ca2+ assay, reduction of L-Menthol activation of TRPV1; settings: for inhibition at 100 µM: read-out: % Reduction of L-Menthol TRPV1 Activation
Procedure: To determine whether TRPV1 was activated, the intracellular calcium ion (Ca^+2) levels from cells transfected with the TRPV1 receptor gene was measured. HEK-239 cells stably transfected with human TRPV1 were grown in 15 ml growth medium [high glucose DMEM (Dulbecco's Modification of Eagle's Medium) supplemented with 10% FBS (fetal bovine serum), 100 g/ml Penicillin/streptomycin, 100 g/ml G418] in a 75 Cm2 flask for 3 days at 33° C. in a mammalian cell culture incubator set at 5% CO2. Cells were detached with addition of 10 ml of PBS (phosphate buffered saline) by hand shaking gently. Cells were transferred to a 50 ml tube and centrifuged at 850 rpm for 3 minutes to remove PBS. After centrifugation, a pellet of cells formed in the bottom of the tube separating them from the supernatant solution. The supernatant was discarded and the cell pellet suspended in 1 ml of fresh growth medium to which 5 μl (12.5 g) of Fluo-4 AM (Molecular Probes, Inc., Eugene, Oreg.) calcium indicator was added and incubated for 30 minutes with gentle shaking.
The pelleted cells were re-suspended in 10 ml assay buffer and 90 μl aliquots (˜50,000 cells) per well delivered to a 96-well assay plate containing 10 μl of test compounds (1 mM in assay buffer, final concentration 100 μM) or buffer control and incubated at room temperature for 30 minutes. After 30 minutes, the plate was placed into a fluorometric imaging plate reader (FLIPR384 from Molecular Devices) and basal fluorescence recorded (excitation wave length 488 nm and emission wave length 510 nm). Then 20 μl of the compound being tested as a TRPV1 receptor activator was added and fluorescence recorded. […] It may be no difference (no effect), or negative (means antagonist or desensitizer) or positive (enhancer, also known as positive allosteric modulator). […] To determine if a compound was an antagonist or a desensitizer, the direct effect of a test compound was determined. For determining the direct effect of test compounds on TRPV1, 100 μl aliquots (˜50,000 cells) of cells prepared as described above were delivered to a 96-well assay plate and basal fluorescence recorded as noted above. Then 20 μl of the compound being tested as a TRPV1 receptor activator was added and fluorescence recorded. If any increase in fluorescence over background was noted, then the compound was considered an agonist. The agonist activity was expressed relative to that observed with a benchmark agonist such as 350 nM Capsaicin for TRPV1.
100 μM of antagonist was tested against 1 mM of L-Menthol to determine the level of reduced TRPV1 receptor activation by L-Menthol. Each antagonist compound was run with 1 mM of L-Menthol as a control and the antagonist activity of each compound was determined by comparing the Ca^2+ levels of the control with the antagonist compound being tested.

[2] = molecular target: human TRPA1 (Homo sapiens, UniProt O75762); test: FLIPR Ca2+ assay, reduction of hydrogen peroxide activation of TRPA1; format: cell-based; parameters: expressed in transfected cells; settings: for inhibition at 400 µM / inhibition at 100 µM: read-out: % Reduction of Hydrogen Peroxide TRPA1 Activation
Procedure: After centrifugation, a pellet of cells was formed in the bottom of the tube separating them from the supernatant solution.
The pelleted cells were re-suspended in 10 ml assay buffer and 90 μl aliquots (˜50,000 cells) per well delivered to a 96-well assay plate containing 10 μl of test compounds ([…]) or buffer control and incubated at room temperature for 30 minutes.

[3] = antagonist 100 μM against 1 mM L-Menthol
[4] = 400 μM antagonist vs 500 μM hydrogen peroxide
[5] = antagonist 400 μM against 200 μM hydrogen peroxide
[6] = 100 μM antagonist vs 500 μM hydrogen peroxide
[7] = antagonist 100 μM against 200 μM hydrogen peroxide
[8] = compound 100 μM against 200 μM hydrogen peroxide, Sets 1-4

Chain of human TRPA1 (O75762 whole entry): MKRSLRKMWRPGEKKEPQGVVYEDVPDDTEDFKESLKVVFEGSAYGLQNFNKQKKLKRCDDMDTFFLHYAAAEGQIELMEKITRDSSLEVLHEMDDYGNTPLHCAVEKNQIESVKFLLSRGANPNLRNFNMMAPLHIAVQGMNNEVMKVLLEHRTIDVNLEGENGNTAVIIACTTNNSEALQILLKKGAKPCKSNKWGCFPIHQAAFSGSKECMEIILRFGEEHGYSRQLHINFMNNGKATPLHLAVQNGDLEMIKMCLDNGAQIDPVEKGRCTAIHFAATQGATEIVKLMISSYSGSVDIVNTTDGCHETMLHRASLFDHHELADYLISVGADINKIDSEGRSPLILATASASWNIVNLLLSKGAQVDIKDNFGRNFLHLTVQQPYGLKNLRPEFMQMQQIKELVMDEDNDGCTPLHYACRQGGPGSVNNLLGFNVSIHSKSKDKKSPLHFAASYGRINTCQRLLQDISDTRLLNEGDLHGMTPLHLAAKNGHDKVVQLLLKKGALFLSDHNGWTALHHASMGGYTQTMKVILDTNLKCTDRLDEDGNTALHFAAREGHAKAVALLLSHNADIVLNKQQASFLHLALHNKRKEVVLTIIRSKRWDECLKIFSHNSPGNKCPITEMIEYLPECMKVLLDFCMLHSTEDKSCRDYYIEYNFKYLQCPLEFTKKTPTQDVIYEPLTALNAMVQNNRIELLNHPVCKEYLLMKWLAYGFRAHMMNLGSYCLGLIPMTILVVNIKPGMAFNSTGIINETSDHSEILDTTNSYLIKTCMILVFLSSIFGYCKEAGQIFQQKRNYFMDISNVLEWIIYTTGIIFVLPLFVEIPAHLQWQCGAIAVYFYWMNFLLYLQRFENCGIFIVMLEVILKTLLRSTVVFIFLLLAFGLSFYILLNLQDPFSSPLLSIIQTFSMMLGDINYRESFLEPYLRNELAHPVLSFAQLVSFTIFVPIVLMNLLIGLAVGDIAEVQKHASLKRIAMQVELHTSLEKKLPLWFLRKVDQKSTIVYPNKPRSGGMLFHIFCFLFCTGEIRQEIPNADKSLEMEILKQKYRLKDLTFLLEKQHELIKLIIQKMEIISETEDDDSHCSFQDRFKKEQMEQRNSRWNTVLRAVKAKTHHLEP
Chain of human TRPV1 (Q8NER1 whole entry): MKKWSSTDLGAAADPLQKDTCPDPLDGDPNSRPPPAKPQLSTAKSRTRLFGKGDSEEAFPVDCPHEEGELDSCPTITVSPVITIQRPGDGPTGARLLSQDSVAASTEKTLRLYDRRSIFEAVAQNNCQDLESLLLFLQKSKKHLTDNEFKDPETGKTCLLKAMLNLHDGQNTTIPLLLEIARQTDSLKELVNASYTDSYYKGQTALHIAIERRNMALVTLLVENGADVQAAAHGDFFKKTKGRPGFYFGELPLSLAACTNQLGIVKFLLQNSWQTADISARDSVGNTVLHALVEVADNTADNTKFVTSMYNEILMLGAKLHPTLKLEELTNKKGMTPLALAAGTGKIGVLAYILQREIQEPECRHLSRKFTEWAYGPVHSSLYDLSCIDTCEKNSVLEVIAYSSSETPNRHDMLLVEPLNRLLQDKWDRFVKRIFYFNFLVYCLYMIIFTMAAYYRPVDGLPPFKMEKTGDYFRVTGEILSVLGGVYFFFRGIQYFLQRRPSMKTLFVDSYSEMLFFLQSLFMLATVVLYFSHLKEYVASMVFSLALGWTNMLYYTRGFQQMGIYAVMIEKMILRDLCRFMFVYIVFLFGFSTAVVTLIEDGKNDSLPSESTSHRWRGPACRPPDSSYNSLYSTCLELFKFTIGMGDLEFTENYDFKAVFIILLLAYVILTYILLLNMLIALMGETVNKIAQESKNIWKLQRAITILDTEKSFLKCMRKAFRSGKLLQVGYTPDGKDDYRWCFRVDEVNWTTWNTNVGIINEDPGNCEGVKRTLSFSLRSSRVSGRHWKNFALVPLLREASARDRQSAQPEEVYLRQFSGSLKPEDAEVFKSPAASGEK

Row | Block of hydrogen peroxide activation of TRPA1 [2, 6] | Average Ca++ Counts [2, 8] [Counts] | inhibition at 100 µM [2, 8] [%] | Molecule | also measured
1 | BLOCK ONLY H2O2/TRPA1 | – | – | COc1cc(C(=O)O)ccc1O [Vanillic Acid] | inhibition at 100 µM [2, 7]: 19%
2 | BLOCK ONLY H2O2/TRPA1 | 3149.0 | 55.3 | CCCCCO [amyl alcohol] | –
3 | BLOCK ONLY H2O2/TRPA1 | 5193.0 | 51 | CC=CC(=O)O [but-2-enoic acid] | –
4 | BLOCK ONLY H2O2/TRPA1 | 5157.0 | 51.3 | CCCCOC(=O)C(C)O (stereo not shown) [butyl lactate] | –
5 | BLOCK ONLY H2O2/TRPA1 | 4725.5 | 55.4 | CCCC=O [butyraldehyde] | –
6 | BLOCK ONLY H2O2/TRPA1 | 2253.5 | 68 | CCC(C)(O)CCc1ccccc1 (stereo not drawn) [ethyl methyl beta-phenylethyl carbinol] | –
7 | BLOCK ONLY H2O2/TRPA1 | 3124.0 | 55.6 | CC1=CCC(C(C)C)=CC1 [gamma-terpinene] | –
8 | BLOCK ONLY H2O2/TRPA1 | 5617.5 | 47 | O=C(O)CC(O)C(=O)O (stereo not shown) [malic acid] | –
9 | BLOCK ONLY H2O2/TRPA1 | 4904.5 | 53.7 | COC(=O)c1ccc(O)cc1 [methyl 4-hydroxybenzoate] | –
10 | BLOCK ONLY H2O2/TRPA1 | 3363.5 | 52.2 | CCCCC/C=C\C/C=C\CCCCCCCC(=O)OC [methyl linoleate] | –

Continued, molecule first:

Row | Molecule | Block of hydrogen peroxide activation of TRPA1 [2, 6] | Average Ca++ Counts [2, 8] [Counts] | inhibition at 100 µM [2, 8] [%] | also measured
11 | CC(O)c1ccccc1 (racemic) [(+−)-1-phenylethanol] | – | – | – | Average Ca2+ Counts [1, 3]: 1087.7 Counts; inhibition at 100 µM [1]: 41.6%
12 | CC(C)=CCCC(C)CCO (racemic) [(+−)-beta;-citronellol] | – | – | – | % Reduction of L-Menthol TRPV1 Activation [1, 3]: 22.5%; Average Ca2+ Counts [1, 3]: 1501.3 Counts
13 | CCCCCCCCCCO [1-decanol] | – | – | – | Average Ca2+ Counts [1, 3]: 1175.7 Counts; inhibition at 100 µM [1]: 37.5%
14 | COc1ccc(C)cc1C [2,4-dimethylanisole] | – | – | – | Average Ca2+ Counts [1, 3]: 1255.3 Counts; inhibition at 100 µM [1]: 33.9%
15 | COc1cccc(OC)c1O [2,6-dimethoxyphenol] | – | – | – | Average Ca2+ Counts [1, 3]: 1365.0 Counts; inhibition at 100 µM [1]: 28.8%
16 | CC(=O)c1cccn1C [2-acetyl-1-methylpyrrole] | – | – | – | Average Ca2+ Counts [1, 3]: 1254.0 Counts; inhibition at 100 µM [1]: 33.9%
17 | COC(=O)c1ccccc1OC [Methyl 2-methoxy-benzoate] | – | – | – | Block of hydrogen peroxide activation of TRPA1 [2, 4]: BLOCK ONLY H2O2/TRPA1; inhibition at 400 µM [2, 5]: 48%
18 | COC(=O)CCCc1ccccc1 [Methyl-4-phenyl butyrate] | – | – | – | Block of hydrogen peroxide activation of TRPA1 [2, 4]: BLOCK ONLY H2O2/TRPA1; % Reduction of Hydrogen Peroxide TRPA1 Activation [2, 5]: 60%
19 | CC(O)C(=O)NCCO (stereo not shown) [N-(2-Hydroxyethyl) lactamide] | – | – | – | Block of hydrogen peroxide activation of TRPA1 [2, 4]: BLOCK ONLY H2O2/TRPA1; inhibition at 400 µM [2, 5]: 65%
20 | CCCCCCC1CCCC(=O)O1 (stereo not shown) [Undecanoic-δ-Lactone] | – | – | – | % Reduction of Hydrogen Peroxide TRPA1 Activation [2]: −42%
21 | CC1=CC(O)CC(C)C2CC(=C(C)C)CC12 (stereo not shown) [Vetiverol, 6-Azulenol, 1,2,3,3a,4,5,6,8a-octahydro-4,8-dimethyl-2-(1-methylethylidene)-] | – | – | – | inhibition at 400 µM [2, 5]: -34%
22 | C=C(C)OC(C)=O [acetic acid isopropenyl ester] | BLOCK ONLY H2O2/TRPA1 | 2860.5 | 59.4 | –
23 | CC(=O)C(C)O (stereo not shown) [acetoin] | BLOCK ONLY H2O2/TRPA1 | 4341.5 | 59 | –
24 | CC(=O)OCC(C)(C)Cc1ccccc1 [alpha,alpha-dimethylhydrocinnamyl acetate] | – | 3367.0 | 52.2 | –
25 | C=C(C)c1ccc(C)cc1 [alpha,p-dimethylstyrene] | – | 3735.5 | – | % Reduction of Hydrogen Peroxide TRPA1 Activation [2, 8]: 57.2%
26 | C/C=C(\C)C(=O)OCc1ccccc1 [benzyl tiglate] | BLOCK ONLY H2O2/TRPA1 | 2385.0 | 59.4 | –
27 | Cc1ccc(C(C)C)cc1O [carvacrol] | – | – | – | Average Ca++ Counts [2]: 3464.5 Counts; inhibition at 100 µM [2]: 50.8%
28 | CC12CCC(C1)C(C)(C)C2=O (stereo not shown) [fenchone] | BLOCK ONLY H2O2/TRPA1 | 2761.5 | 60.8 | –

Row | Molecule | Block of hydrogen peroxide activation of TRPA1 [2, 6] | Average Ca++ Counts [2, 8] [Counts] | inhibition at 100 µM [2, 8] [%] | also measured
29 | [Cl][Fe]([Cl])[Cl] [ferric chloride] | BLOCK ONLY H2O2/TRPA1 | 3287.0 | – | % Reduction of Hydrogen Peroxide TRPA1 Activation [2, 8]: 53.3%
30 | CC(=O)C(=O)OCCC(C)C [isoamyl pyruvate] | BLOCK ONLY H2O2/TRPA1 | 2824.0 | 59.9 | –
31 | CC(C)COC(=O)C(C)C [isobutyl isobutyrate] | BLOCK ONLY H2O2/TRPA1 | 3383.0 | 52 | –
32 | CC(C)CCO [isopentyl alcohol] | BLOCK ONLY H2O2/TRPA1 | 3778.0 | 56.7 | –
33 | CCCCCC(=O)OC(C)C [isopropyl hexanoate] | BLOCK ONLY H2O2/TRPA1 | 2862.0 | 59.4 | –
34 | COC(=O)c1ccccc1 [methylbenzoate] | – | – | – | Average Ca++ Counts [2]: 3817.0 Counts; Block of hydrogen peroxide activation of TRPA1 [2]: BLOCK ONLY H2O2/TRPA1; inhibition at 100 µM [2]: 56.2%
35 | CCCCO [n-butyl alcohol] | – | – | – | % Reduction of Hydrogen Peroxide TRPA1 Activation [2]: 57.3%; Average Ca++ Counts [2]: 3009.0 Counts; Block of hydrogen peroxide activation of TRPA1 [2]: BLOCK ONLY H2O2/TRPA1
36 | Cc1ccc(C(C)(C)O)cc1 [p-cymen-8-ol] | – | – | – | % Reduction of Hydrogen Peroxide TRPA1 Activation [2]: 50.6%; Average Ca++ Counts [2]: 3476.5 Counts; Block of hydrogen peroxide activation of TRPA1 [2]: BLOCK ONLY H2O2/TRPA1
37 | OCc1ccccc1 [phenyl-methanol] | BLOCK ONLY H2O2/TRPA1 | 5244.5 | 50.5 | –
38 | CC(C)CC(=O)OCCc1ccccc1 [phenylethyl isovalerate] | BLOCK ONLY H2O2/TRPA1 | 3291.5 | 53.3 | –
39 | c1ccc2ncccc2c1 [quinoline] | BLOCK ONLY H2O2/TRPA1 | 3440.0 | 51.2 | –
40 | O=C1O[C@H]([C@H](O)CO)C([O-])=C1O.[Na+] [sodium erythorbate] | – | – | – | % Reduction of Hydrogen Peroxide TRPA1 Activation [2]: 54.5%; Average Ca++ Counts [2]: 3204.5 Counts; Block of hydrogen peroxide activation of TRPA1 [2]: BLOCK ONLY H2O2/TRPA1
41 | CCC/C=C/C=O [trans-2-Hexenal] | – | – | – | Block of hydrogen peroxide activation of TRPA1 [2]: BLOCK ONLY H2O2/TRPA1; inhibition at 400 µM [2]: 52%
42 | NC(N)=O [urea] | – | – | – | % Reduction of Hydrogen Peroxide TRPA1 Activation [2]: 52.4%; Average Ca++ Counts [2]: 5045.5 Counts; Block of hydrogen peroxide activation of TRPA1 [2]: BLOCK ONLY H2O2/TRPA1
43 | CCCCCCCCC1CCC(=O)O1 (stereo not shown) [γ-Dodecalactone] | – | – | – | % Reduction of Hydrogen Peroxide TRPA1 Activation [2]: 51%; Block of hydrogen peroxide activation of TRPA1 [2]: BLOCK ONLY H2O2/TRPA1
44 | CCCCCCC1(C)CCC(=O)O1 (stereo not shown) [γ-Methyl Decalactone] | BLOCK ONLY H2O2/TRPA1 | – | – | % Reduction of Hydrogen Peroxide TRPA1 Activation [2, 7]: 48%
45 | desoxycholic acid | – | – | – | % Reduction of Hydrogen Peroxide TRPA1 Activation [2]: 56.6%; Average Ca++ Counts [2]: 3058.5 Counts; Block of hydrogen peroxide activation of TRPA1 [2]: BLOCK ONLY H2O2/TRPA1
